Laboratory results reported in the supplement of paper PMC10307832.

Legend:
Assay in all cases: relative viability (nuclei count vs DMSO), 5 days (fraction); higher = more cells survive
[1] = compound: Cn1cc(-c2cnn3c(N)c(Br)c([C@@H]4CCCNC4)nc23)cn1 + Nc1nc2[nH]cc(CCc3ccc(C(=O)N[C@@H](CCC(=O)O)C(=O)O)cc3)c2c(=O)[nH]1 [Pemetrexed] (partner 0.2 µM)
Summary of the method: (§1)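 A single step with final 0.05% Triton X-100, 1% formaldehyde and 1 ug/ml Hoechst fixed the cells and stained nuclei 5 days after treatment. Lung cancer cell lines in 1536-well plates had been treated by pin tool the day after seeding with one drug alone or a fixed anchor-drug dose plus five library-drug doses (not always all listed) in √10 steps, and nuclei were counted on 4× images. Relative viability is the ratio of nuclei in treated wells to nuclei in vehicle wells, taken as the median of duplicate plates.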

[2] = compound: Cn1cc(-c2cnn3c(N)c(Br)c([C@@H]4CCCNC4)nc23)cn1 + COc1cccc2cc(-c3nc([C@H]4CC[C@H](C(=O)O)CC4)n4ncnc(N)c34)[nH]c12 [OSI-027] (partner 0.5 µM)
Summary of the method: as §1

[3] = compound: Cn1cc(-c2cnn3c(N)c(Br)c([C@@H]4CCCNC4)nc23)cn1 + COc1cc2c(Oc3ccc(NC(=O)C4(C(=O)Nc5ccc(F)cc5)CC4)cc3F)ccnc2cc1OCCCN1CCOCC1 [Foretinib] (partner 0.25 µM)
Summary of the method: as §1

[4] = compound: Cn1cc(-c2cnn3c(N)c(Br)c([C@@H]4CCCNC4)nc23)cn1 + NC(=O)Nc1cc(-c2cccc(F)c2)sc1C(=O)N[C@H]1CCCNC1 [AZD7762] (partner 0.2 µM)
Summary of the method: as §1

Cell Line | relative viability ([1]; first compound 0.05 µM) | relative viability ([1]; first compound 0.1581 µM) | relative viability ([1]; first compound 0.5 µM) | relative viability ([1]; first compound 1.581 µM) | relative viability ([1]; first compound 5 µM) | relative viability ([2]; first compound 0.05 µM) | relative viability ([2]; first compound 0.1581 µM) | relative viability ([2]; first compound 0.5 µM) | relative viability ([2]; first compound 1.581 µM) | relative viability ([2]; first compound 5 µM) | relative viability ([3]; first compound 0.05 µM) | relative viability ([3]; first compound 0.1581 µM) | relative viability ([3]; first compound 0.5 µM) | relative viability ([3]; first compound 1.581 µM) | relative viability ([3]; first compound 5 µM) | relative viability ([4]; first compound 0.05 µM) | relative viability ([4]; first compound 0.1581 µM) | relative viability ([4]; first compound 0.5 µM) | relative viability ([4]; first compound 1.581 µM) | relative viability ([4]; first compound 5 µM)
COR-L 105 | 0.939 | 0.921 | 1.08 | 0.92 | 0.82 | 0.632 | 0.818 | 0.688 | 0.587 | 0.487 | 0.83 | 0.995 | 0.994 | 0.782 | 1.46 | – | – | – | – | –
LK-2 | 0.271 | 0.309 | 0.271 | 0.278 | 0.124 | 0.146 | 0.162 | 0.172 | 0.179 | 0.168 | 1.18 | 1.27 | 0.887 | – | 0.901 | 0.303 | 0.408 | 0.33 | 0.315 | 0.209
NCI-H727 | – | – | – | – | – | 0.551 | 0.761 | 0.719 | 0.711 | 0.429 | 0.949 | 0.905 | 0.967 | 0.882 | 0.527 | 0.591 | 0.52 | 0.512 | 0.536 | 0.472
RERF-LC-KJ | 0.459 | 0.476 | 0.477 | 0.422 | 0.478 | 0.639 | 0.543 | 0.535 | 0.527 | 0.511 | 0.98 | 0.881 | 0.865 | 0.727 | 0.86 | 1.1 | 0.864 | 1.1 | 0.872 | 0.749
NCI-H2023 | 0.175 | 0.124 | 0.115 | 0.118 | 0.112 | 0.438 | 0.342 | 0.269 | 0.159 | 0.13 | 0.785 | 0.604 | 0.688 | 0.201 | 0.178 | – | – | – | – | –
NCI-H322M | 0.602 | 0.548 | 0.561 | 0.49 | 0.363 | 0.46 | 0.356 | 0.466 | 0.354 | 0.242 | 0.91 | 0.62 | 0.854 | 0.563 | 0.297 | 0.51 | 0.428 | 0.501 | 0.447 | 0.407
NCI-H1666 | 0.837 | 0.826 | 0.749 | 0.63 | 0.658 | 0.827 | 0.966 | 0.913 | 0.812 | 0.66 | 0.936 | 1.05 | 0.888 | 1.05 | 0.919 | 0.78 | 0.82 | 0.813 | 0.845 | 0.861
NCI-H1648 | 0.686 | 0.673 | 0.68 | 0.715 | 0.668 | 0.249 | 0.235 | – | 0.258 | 0.261 | – | – | – | – | – | 0.607 | 0.635 | 0.717 | 0.649 | 0.637
NCI-H2087 | 0.671 | 0.637 | 0.615 | 0.582 | 0.647 | 0.498 | 0.696 | 0.641 | 0.454 | 0.503 | 1.18 | 1.22 | 0.989 | 1.32 | 1 | 1.32 | 1.38 | 1.41 | 1.22 | 1.42
LU99A | 0.19 | 0.144 | 0.139 | 0.124 | 0.129 | 0.285 | 0.309 | 0.242 | 0.261 | 0.207 | 0.805 | 0.768 | 0.821 | 0.706 | 0.716 | 0.371 | 0.392 | 0.304 | 0.264 | 0.224
HCC-366 | 0.166 | 0.108 | 0.128 | 0.0814 | 0.0667 | 1.03 | 1.19 | 0.945 | 0.959 | 0.952 | 0.967 | 0.887 | 0.93 | 0.855 | 0.865 | 0.202 | 0.247 | 0.344 | 0.229 | 0.224
EKVX | 0.497 | 0.293 | 0.307 | 0.241 | 0.206 | 0.676 | 0.75 | 0.733 | 0.71 | 0.633 | 0.749 | 0.925 | 0.699 | 0.816 | 0.469 | 0.76 | 0.75 | 0.711 | 0.603 | 0.537
NCI-H522 | 0.938 | 0.913 | 1.02 | 1.01 | 0.865 | 0.344 | 0.685 | 0.748 | 0.681 | 0.661 | – | – | – | – | – | 0.616 | 0.812 | 0.882 | 0.763 | 0.748
NCI-H1755 | 0.398 | 0.397 | 0.401 | 0.373 | 0.272 | 0.74 | 0.803 | 0.715 | 0.693 | 0.587 | 0.997 | 0.943 | 0.91 | 0.95 | 0.821 | 0.518 | 0.511 | 0.416 | 0.4 | 0.307
NCI-H647 | 0.174 | 0.104 | 0.104 | 0.114 | 0.0596 | 0.66 | 0.718 | 0.612 | 0.588 | 0.479 | 1.17 | 1.27 | 1.25 | 1.01 | 0.416 | 0.497 | 0.496 | 0.349 | 0.37 | 0.238
LC-2-ad | 0.293 | 0.295 | 0.265 | 0.25 | 0.239 | 0.806 | 0.879 | 0.905 | 0.884 | 0.736 | 0.878 | 0.999 | 1.09 | 0.938 | 0.908 | 0.841 | 0.949 | 0.819 | 0.805 | 0.881
NCI-H1793 | 1.02 | 0.838 | 0.79 | 0.766 | 0.49 | 0.286 | 0.282 | 0.324 | 0.309 | 0.304 | 0.71 | 0.806 | 0.63 | 0.683 | 0.518 | 0.598 | 0.466 | 0.422 | 0.397 | 0.183
